The text below walks through data of patent publication US7524832B2, “Combretastatin A-4 phosphate prodrug mono-and di-organic amine salts, mono-and di-amino acid salts and mono-and di-amino acid ester salts” (priority 2000, dated 2009).

Series [1] is described as follows: hygroscopicity (moisture sorption/desorption). The settings on record: 25° C., ambient and high humidity conditions. The class given is physicochemical. As for the experimental part:
The data was obtained using a VTI Model MB-300W Moisture balance with relative humidity levels from 10% to 90% in increments of 10%. The maximum equilibration time at each humidity was set at 4 hours.
As used herein, the term “nonhygroscopic”, in reference to a compound, preferably denotes no measurable weight gain per weight of compound as measured above.
This was an unexpected result, because other salt forms of CA4P free acid are hygroscopic under similar conditions. Variable relative humidity-X-ray diffraction (“RH-XRD”) experiments have shown that the powder pattern remains unchanged on exposure to different humidities at 25° C.

Series [2] in a line: solid-state chemical stability. The class given is physicochemical. Particulars: ambient and accelerated conditions of temperature and humidity.
A further series in a line: physchem. The settings on record: 25 °C, thermodynamic from solid.
Series [3] concerns murine L1210 lymphocytic leukemia cell line. The settings on record: NCI murine L1210; cited from earlier work.
Series [4] has as its system murine P338 lymphocytic leukemia cell line. Particulars: NCI murine P338; cited from earlier work.
A further series deals with microtubulin assembly. Particulars: cited from earlier work.
For series [5] the following is noted: cited from earlier work.

The structures appear in SMILES notation. Where a name gives a salt, the structure may show the parent alone.

As to `COc1ccc(/C=C\c2cc(OC)c(OC)c(OC)c2)cc1OP(=O)(O)O` [CA4P mono TRIS salt, CA4P mono-tromethamine salt], the hygroscopicity entry in series [1] is “practically nonhygroscopic”. The “chemical stability in the solid-state” value in series [2] is recorded as “good chemical stability”. Also, the solubility in “physchem” (pH 4.8, water) came out at 3.37 mg/mL; in the series “physchem” (pH 8.2, aqueous buffer) it was 191 mg/mL.

On to `COc1ccc(/C=C\c2cc(OC)c(OC)c(OC)c2)cc1O` [combretastatin A-4], for which, in series [3], the “activity against L1210 lymphocytic leukemia cell line” value is given as “significantly active”. Moreover, the “activity against P338 lymphocytic leukemia cell line” value in series [4] is “significantly active”. Moreover, the “inhibition of microtubulin assembly” value in the series on microtubulin assembly is reported as “potent inhibitor”. Besides, in series [5], the “solubility in water” value is listed as “essentially insoluble in water”.
